According to patent publication US10231939B2, “Hydroxytyrosol and oleuropein compositions for induction of DNA damage, cell death and LSD1 inhibition” (priority 2012, dated 2019):

Assays:
LSD1 = LSD1 (Homo sapiens, UniProt O60341); assay: LSD1 Demethylase Profiling (HRP/Amplex Red); assay type: biochemical; details: for LSD1 inhibition (in words): 10-dose, 3-fold serial dilution starting at 100 μM, 10 μM Histone H3 (1-21) K4me2 peptide
Protocol: (§1) Formulation 2 (4× diluted) was tested against positive control tranylcypromine for LSD1 inhibition activity. […] The production of FAD-dependent H2O2 as a result of demethylase activity of LSD1 is measured by coupling with HRP and Amplex Red and fluorescence was measured using the EnVision plate reader at Ex/Em=535/590 nm. 10 μM Histone H3 (1-21) K4me2 peptide was used as the standard substrate. Data was represented at the percentage of LSD1 enzymatic activity inhibition relative to DMSO controls and a curve fit for the control compound.
as §1, with “Hydroxytyrosol” for “Formulation 2 (4× diluted)”

K562 cells [1] = assay: γH2AX immunofluorescence, K562; assay type: cell-based, human
Protocol: Cells were seeded at densities of 1×10^6/mL in 24 well culture (Nalge Nunc, New York, USA) and treated with hydroxytyrosol (0, 20, 100 μM), for 24 hours at 37° C., 5% (v/v) CO2. Cells were then stained and quantified for the number of γH2AX foci per cell nuclei. Briefly, using cytofunnels and filter cards, aliquots of […] were cytospun (Shandon, Inc.) for 5 minutes at 500 rpm onto Poly-o-lysine slides (Menzel-Glaser, Germany). All cells were then fixed for 10 minutes with 4% paraformaldehyde (Sigma-Aldrich, USA), washed once for five minutes with PBS without calcium and magnesium and permeabilized using 0.1% Triton X-100(Sigma-Aldrich, USA) for 10 minutes at room temperature. […]
Images were acquired using a Zeiss LSM 510 Meta laser confocal microscope fitted with a Z-stage motor and 63× oil plan apochromat objective with a refractive index of 1.40. […] Images required for γH2AX quantification were acquired in 512×512 pixel format and loaded into Image J (Fiji version 1.44a). […]
Image J software was used for the quantification of foci in all experiments. […] Now clearly defined nuclear regions were selected, numbers of foci were quantified by using the find maxima tool. […] Foci were now quantified as a total number for all cells selected. The average number of foci per nucleus was calculated and recorded into Excel spread sheets (Microsoft, Redmond, Wash., USA). […]

K562 cells [2] = assay: Western blotting of histone methylation, K562; assay type: cell-based, human; details: K562, 100 μM, 24 hours
PBMC = assay: Western blotting of histone methylation, PBMC; assay type: cell-based, human; details: 100 μM, 24 hours
human keratinocytes = assay: γH2AX immunofluorescence, keratinocytes after γ-radiation; assay type: cell-based; details: pre-treatment 24 hours
Protocol: Keratinocytes pre-treated with Formulations 1, 2 and 3 (Table 9) for 24 hours prior to exposure to 0, 2 and 12 Gy (137Cs) and incubated for a further hour; 37° C., 5% (v/v) CO2, before staining for γH2AX as previously described.

- LSD1 inhibition (in words) (LSD1; listed as Hydroxytyrosol): Hydroxytyrosol is a potent
- LSD1 inhibition (in words) (LSD1; listed as hydroxytyrosol): potent inhibitor of LSD1
Structure (SMILES): OCCc1ccc(O)c(O)c1 [HT, 4-(2-hydroxyethyl)-1,2-benzenediol]
- LSD1 inhibition compared with tranylcypromine (LSD1; positive control tranylcypromine): more effective LSD1 inhibitor against tranylcypromine
- DNA double-strand breaks (γH2AX accumulation) (K562 cells [1]; K562, 0, 20, 100 μM, 24 hours): induces significant DNA-double strand breaks
- effect on DNA damage by anti-cancer modalities (doxorubicin, vinblastine, mitomycin C, UVA, γ-radiation) (K562 cells [1]; K562, 100 μM hydroxytyrosol pre-treatment 24 hours): enhances the DNA damaging effects
- histone H3 lysine 9 (H3K9) di-methylation (K562 cells [2]): increased
- histone H3 lysine 9 (H3K9) di-methylation (PBMC): decreased
- radiation-induced DNA damage (human keratinocytes): protects
